Literature values as cited in patent US8912167B2, “Heparin-based compositions and methods for the inhibition of metastasis” (priority 2011, dated 2014).

Conditions: under physiological conditions

## tetra-[5-(L)-lysyl-amino-O-methylsalicylamide]
  binding to heparin: bind heparin tightly and essentially irreversibly
